In PubChem BioAssay (NCI):
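1) Cells in 96-well plates. 2) Compound, 48 h, 5 concentrations. 3) Linear interpolation between surrounding doses. 4) Unreached endpoint = highest concentration. TGI: concentration producing complete growth inhibition.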

Legend:
Test in all cases: NCI-60 cell line screen, 48 h
[1] = test system: DMS 114 small cell lung
[2] = test system: DMS 273 small cell lung
[3] = test system: KM20L2 colon
[4] = test system: LXFL 529 NSCLC
[5] = test system: SNB-78 CNS
[6] = test system: HOP-18 NSCLC
[7] = test system: XF 498 CNS

Row | Structure (SMILES) | TGI [1] | TGI [2] | TGI [3] | TGI [4] | TGI [5] | TGI [6] | TGI [7]
1 | COc1ccc(-c2cc(=O)c3ccccc3[nH]2)c(OC)c1 | > 100 µM | > 100 µM | > 100 µM | > 100 µM | > 100 µM |  | 
2 | C=C1CCC23CC(CC[C@@H]2[C@@]12C[C@@H](c1ccoc1)OC2=O)OC3=O (some centres undefined) | > 100 µM | > 100 µM | > 100 µM | > 100 µM | > 100 µM | > 100 µM | > 100 µM
3 | Cc1ccc(S(=O)(=O)OC(c2ccc(Cl)cc2Cl)C2OC(=O)c3ccccc32)cc1 (centres undefined) | > 100 µM | > 100 µM | > 100 µM | > 100 µM | > 100 µM |  | > 100 µM
4 | C=CCc1cc(-c2cc(CC=C)c(O)c(CNCCCl)c2)cc(CNCCCl)c1O | 42.2 µM |  | 33.9 µM | 29.3 µM | > 100 µM |  | 
5 | CCN(CC)CC(=O)O[C@]1(CC)C(=O)OCc2c1cc1n(c2=O)Cc2cc3ccccc3nc2-1 | 0.362 µM | 0.0304 µM | 0.887 µM | 3.3 µM | > 100 µM | > 100 µM | 2.19 µM
6 | COc1cccc(/C=C2\C(=O)N(C(=O)c3ccc(NC(C)=O)cc3)N=C2C)c1 | > 100 µM | > 100 µM |  |  | > 100 µM |  | > 100 µM
7 | CCOC(=O)C(Cc1cn(S(=O)(=O)c2ccccc2)c2ccccc12)(NC(C)=O)C(=O)OCC | 80.4 µM | > 100 µM | > 100 µM | 95.5 µM |  |  | > 100 µM
8 | O=C1NC2OCC(O)C(O)C2O1 (centres undefined) | > 100 µM | > 100 µM | > 100 µM | > 100 µM | > 100 µM | > 100 µM | 
